Source: the supplement of paper PMC5908809

Key:
[1] = tested on: normal NK cells expanded with K562-aAPC; assay: percent inhibition of viability; higher = more inhibition; conditions: 72 h, IL-2 2.5 ng/mL
Procedure: (§1)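 Drug sensitivity and resistance testing on K562-aAPC-expanded normal NK cells: 5 concentrations (10-fold steps over a 10,000-fold range), 72 h at 37 °C, viability by CellTiter-Glo normalised to DMSO and benzethonium chloride controls; DSS from the fitted curve.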

[2] = tested on: DERL-7 (IL-2 2.5 ng/mL); assay: as above; conditions: 72 h
[3] = tested on: IMC-1 (IL-2 20 ng/mL); assay: as above; conditions: 72 h
[4] = tested on: KAI3 (IL-2 2.5 ng/mL); assay: as above; conditions: 72 h
[5] = tested on: KHYG-1 (IL-2 2.5 ng/mL); assay: as above; conditions: 72 h
[6] = tested on: NK-92 (IL-2 2.5 ng/mL); assay: as above; conditions: 72 h
[7] = tested on: NK-YS (IL-2 2.5 ng/mL); assay: as above; conditions: 72 h
[8] = tested on: NKL (IL-2 2.5 ng/mL); assay: as above; conditions: 72 h
[9] = tested on: SNK-6 (IL-2 2.5 ng/mL); assay: as above; conditions: 72 h
[10] = tested on: YT (IL-2 2.5 ng/mL); assay: as above; conditions: 72 h
[11] = tested on: normal primary NK cells, pool 1 (3 donors) (IL-2 2.5 ng/mL); assay: as above; conditions: 72 h
[12] = tested on: normal primary NK cells, pool 1 (3 donors), resting (IL-2 0 ng/mL); assay: as above; conditions: 72 h
[13] = tested on: normal primary NK cells, pool 2 (3 donors) (IL-2 2.5 ng/mL); assay: as above; conditions: 72 h
[14] = tested on: normal primary NK cells, pool 3 (3 donors) (IL-2 2.5 ng/mL); assay: as above; conditions: 72 h
[15] = tested on: normal NK cells expanded with K562-aAPC; assay: drug sensitivity score (DSS) (DSS units); higher = more sensitive; extreme values may be limits of the assay; conditions: 72 h; IL-2 2.5 ng/mL
Procedure: as §1

[16] = tested on: DERL-7 (IL-2 2.5 ng/mL); assay: as above; conditions: 72 h
[17] = tested on: IMC-1 (IL-2 20 ng/mL); assay: as above; conditions: 72 h
[18] = tested on: KAI3 (IL-2 2.5 ng/mL); assay: as above; conditions: 72 h
[19] = tested on: KHYG-1 (IL-2 2.5 ng/mL); assay: as above; conditions: 72 h
[20] = tested on: NK-92 (IL-2 2.5 ng/mL); assay: as above; conditions: 72 h
[21] = tested on: NK-YS (IL-2 2.5 ng/mL); assay: as above; conditions: 72 h
[22] = tested on: NKL (IL-2 2.5 ng/mL); assay: as above; conditions: 72 h
[23] = tested on: SNK-6 (IL-2 2.5 ng/mL); assay: as above; conditions: 72 h
[24] = tested on: YT (IL-2 2.5 ng/mL); assay: as above; conditions: 72 h
[25] = tested on: normal primary NK cells, pool 1 (3 donors) (IL-2 2.5 ng/mL); assay: as above; conditions: 72 h
[26] = tested on: normal primary NK cells, pool 1 (3 donors), resting (IL-2 0 ng/mL); assay: as above; conditions: 72 h
[27] = tested on: normal primary NK cells, pool 2 (3 donors) (IL-2 2.5 ng/mL); assay: as above; conditions: 72 h
[28] = tested on: normal primary NK cells, pool 3 (3 donors) (IL-2 2.5 ng/mL); assay: as above; conditions: 72 h

CC(C)C[C@H](NC(=O)[C@H](CCc1ccccc1)NC(=O)CN1CCOCC1)C(=O)N[C@@H](Cc1ccccc1)C(=O)N[C@@H](CC(C)C)C(=O)[C@@]1(C)CO1 [Carfilzomib] (max concentration tested 1000 nM)
percent inhibition of viability [%]
Conditions | 0.1 nM | 1 nM | 10 nM | 100 nM | 1000 nM
[1] | -5.98 | -4.15 | 96.8 | 101 | 101
[2] | 0.47 | 55.2 | 101 | 101 | 101
[3] | -4.55 | -1.82 | 100 | 101 | 101
[4] | -4.59 | 28.8 | 101 | 105 | 107
[5] | -8.88 | 2.3 | 101 | 105 | 105
[6] | 1.15 | 15.4 | 101 | 106 | 106
[7] | -4.19 | 3.04 | 101 | 104 | 105
[8] | -2.93 | -11 | 102 | 106 | 108
[9] | -4.32 | 5.11 | 99.5 | 101 | 101
[10] | -5.39 | 1.26 | 100 | 105 | 105
[11] | -1.09 | 26.1 | 97.9 | 99.6 | 99.8
[12] | -8.37 | 33.8 | 94 | 98.4 | 98.3
[13] | -2.72 | 22.8 | 97.1 | 99.5 | 99.7
[14] | -8.33 | 11.5 | 94.8 | 100 | 101

Conditions | drug sensitivity score
[15] | 29.7
[16] | 37.2
[17] | 30.3
[18] | 34.8
[19] | 30.9
[20] | 33.1
[21] | 30.9
[22] | 29.9
[23] | 31.1
[24] | 30.6
[25] | 34
[26] | 34.1
[27] | 33.4
[28] | 31.4
